Source: patent US4698338A, “7[2-(2-aminothiazol-4-yl)-2-benzyloximino]acetamido-3[4-al kyl-5-oxo-6-hydroxy-3,4-dihydro-1,2,4-triazin-3-yl]thiomethyl cephalosporins” (Eli Lilly and Company, priority 1986, dated 1987)
Values after ≈ are worked out from the molar mass of the structure shown. Where two headings read alike, the source gives them in different places.

How the values were obtained:
Assay in all cases: standard agar dilution in vitro test
Assay type in all cases: cell-based
[1] = tested on: Acinetobacter calcoaceticus AC12; settings: read-out: Minimum Inhibitory Concentration
Excerpt: (§1) The antibacterial activity of the compounds of the formula 1 is illustrated by the data presented in Table 2 for two such compounds. The data presented are the minimum inhibitory concentrations (μg/ml) against representative pathogens obtained in the standard agar dilution in vitro test.

[2] = tested on: Citrobacter freundii CF17; settings: read-out: Minimum Inhibitory Concentration
Excerpt: as §1

[3] = tested on: Enterobacter aerogenes C32; settings: Klebsiella aerogenes, read-out: Minimum Inhibitory Concentration
Excerpt: as §1

[4] = tested on: Enterobacter aerogenes EB17; settings: Klebsiella aerogenes, read-out: Minimum Inhibitory Concentration
Excerpt: as §1

[5] = tested on: Enterobacter cloacae 265A; settings: read-out: Minimum Inhibitory Concentration
Excerpt: as §1

Enterobacter cloacae EB5 = settings: read-out: Minimum Inhibitory Concentration
Excerpt: as §1

Escherichia coli EC14 = tested on: Escherichia coli EC14
Excerpt: as §1

Escherichia coli N10 = settings: read-out: Minimum Inhibitory Concentration
Excerpt: as §1

Escherichia coli TEM = settings: read-out: Minimum Inhibitory Concentration
Excerpt: as §1

[6] = tested on: Haemophilus influenzae C.L.; settings: read-out: Minimum Inhibitory Concentration
Excerpt: as §1

[7] = tested on: Klebsiella pneumoniae KAE; settings: read-out: Minimum Inhibitory Concentration
Excerpt: as §1

[8] = tested on: Klebsiella pneumoniae X26; settings: read-out: Minimum Inhibitory Concentration
Excerpt: as §1

[9] = tested on: Klebsiella pneumoniae X68
Excerpt: as §1

Proteus inconstans PR33 = settings: Providencia alcalifaciens
Excerpt: as §1

Proteus morganii PR15 = settings: Morganella morganii, read-out: Minimum Inhibitory Concentration
Excerpt: as §1

Proteus rettgeri C24 = settings: Providencia rettgeri
Excerpt: as §1

[10] = tested on: Pseudomonas aeruginosa PS18; settings: read-out: Minimum Inhibitory Concentration
Excerpt: as §1

[11] = tested on: Pseudomonas aeruginosa PS72; settings: read-out: Minimum Inhibitory Concentration
Excerpt: as §1

[12] = tested on: Pseudomonas aeruginosa X239; settings: read-out: Minimum Inhibitory Concentration
Excerpt: as §1

[13] = tested on: Pseudomonas aeruginosa X528; settings: read-out: Minimum Inhibitory Concentration
Excerpt: as §1

Salmonella typhi 1335 = settings: Salmonella enterica, read-out: Minimum Inhibitory Concentration
Excerpt: as §1

Salmonella typhi X514 = settings: Salmonella enterica, read-out: Minimum Inhibitory Concentration
Excerpt: as §1

Serratia marcescens SE3 = settings: read-out: Minimum Inhibitory Concentration
Excerpt: as §1

Serratia marcescens X99 = settings: read-out: Minimum Inhibitory Concentration
Excerpt: as §1

Shigella sonnei N9 = settings: read-out: Minimum Inhibitory Concentration
Excerpt: as §1

[14] = tested on: Staphylococcus aureus 513E; settings: read-out: Minimum Inhibitory Concentration
Excerpt: as §1

[15] = tested on: Staphylococcus aureus V41; settings: read-out: Minimum Inhibitory Concentration
Excerpt: as §1

[16] = tested on: Staphylococcus aureus X1.1; settings: read-out: Minimum Inhibitory Concentration
Excerpt: as §1

[17] = tested on: Staphylococcus aureus X400; settings: read-out: Minimum Inhibitory Concentration
Excerpt: as §1

[18] = tested on: Staphylococcus epidermidis 222; settings: read-out: Minimum Inhibitory Concentration
Excerpt: as §1

[19] = tested on: Staphylococcus epidermidis EPi1; settings: read-out: Minimum Inhibitory Concentration
Excerpt: as §1

[20] = tested on: Streptococcus Group D 2041; settings: GROUPD2041, read-out: Minimum Inhibitory Concentration
Excerpt: as §1

[21] = tested on: Streptococcus Group D X66; settings: read-out: Minimum Inhibitory Concentration
Excerpt: as §1

[22] = tested on: Streptococcus pneumoniae Park I; settings: read-out: Minimum Inhibitory Concentration
Excerpt: as §1

[23] = tested on: Streptococcus pyogenes C203; settings: read-out: Minimum Inhibitory Concentration
Excerpt: as §1

[24] = tested on: Haemophilus influenzae 76; settings: read-out: Minimum Inhibitory Concentration
Excerpt: as §1

Row | Structure (SMILES) | MIC [1] [µg/mL] | MIC [2] [µg/mL] | MIC [3] [µg/mL] | MIC [4] [µg/mL] | MIC [5] [µg/mL] | MIC (Enterobacter cloacae EB5) [µg/mL] | MIC (Escherichia coli N10) [µg/mL] | MIC (Escherichia coli TEM) [µg/mL] | MIC [6] [µg/mL] | MIC [7] [µg/mL] | MIC [8] [µg/mL] | MIC (Proteus morganii PR15) [µg/mL] | MIC [10] [µg/mL] | MIC [11] [µg/mL] | MIC [12] [µg/mL] | MIC [13] [µg/mL] | MIC (Salmonella typhi 1335) [µg/mL] | MIC (Salmonella typhi X514) [µg/mL] | MIC (Serratia marcescens SE3) [µg/mL] | MIC (Serratia marcescens X99) [µg/mL] | further results
1 | Cn1nc(O)c(=O)nc1SCC1=C(C(=O)O)N2C(=O)[C@@H](NC(=O)/C(=N\OCc3ccc(O)cc3)c3csc(N)n3)[C@H]2SC1 [Test Compound A, 7β-[2-(2-Aminothiazol-4-yl)-2-(4-hydroxybenzyloxyimino)acetamido]-3-[(2,5-dihydro-6-hydroxy-2-methyl5-oxo-1,2,4-triazin-3-yl)thiomethyl]-3-cephem-4carboxylic acid] | 16 (≈ 24.7 µM) | 4 (≈ 6.19 µM) | 0.25 (≈ 0.387 µM) | 0.5 (≈ 0.773 µM) | 128 (≈ 198 µM) | 0.5 (≈ 0.773 µM) | 0.25 (≈ 0.387 µM) | 0.03 (≈ 0.0464 µM) | 0.03 (≈ 0.0464 µM) | 16 (≈ 24.7 µM) | 0.06 (≈ 0.0928 µM) | 1 (≈ 1.55 µM) | 16 (≈ 24.7 µM) | 64 (≈ 99 µM) | 8 (≈ 12.4 µM) | 128 (≈ 198 µM) | 0.25 (≈ 0.387 µM) | 0.125 (≈ 0.193 µM) | 4 (≈ 6.19 µM) | 0.5 (≈ 0.773 µM) | MIC (Escherichia coli EC14; Escherichia coli, EC14, read-out: Minimum Inhibitory Concentration): 0.125 µg/mL (≈ 0.193 µM); MIC ([9]; Klebsiella pneumoniae, X68, read-out: Minimum Inhibitory Concentration): 0.125 µg/mL (≈ 0.193 µM); MIC (Proteus inconstans PR33; PR33, read-out: Minimum Inhibitory Concentration): 0.125 µg/mL (≈ 0.193 µM); MIC (Proteus rettgeri C24; C24, read-out: Minimum Inhibitory Concentration): 0.125 µg/mL (≈ 0.193 µM); MIC (Shigella sonnei N9): 0.125 µg/mL (≈ 0.193 µM); MIC [14]: 8 µg/mL (≈ 12.4 µM); MIC [15]: 8 µg/mL (≈ 12.4 µM); MIC [16]: 1 µg/mL (≈ 1.55 µM); MIC [17]: 16 µg/mL (≈ 24.7 µM); MIC [18]: 2 µg/mL (≈ 3.09 µM); MIC [19]: 8 µg/mL (≈ 12.4 µM); MIC [20]: 1 µg/mL (≈ 1.55 µM); MIC [21]: 128 µg/mL (≈ 198 µM); MIC [22]: < 0.008 µg/mL; MIC [23]: < 0.008 µg/mL
2 | Cn1nc(O)c(=O)nc1SCC1=C(C(=O)O)N2C(=O)[C@@H](NC(=O)/C(=N\OCc3cc(Cl)ccc3Cl)c3csc(N)n3)[C@H]2SC1 [Test Compound B, 7β-[2-(2-Aminothiazol-4-yl)-2-(2,5-dichlorobenzyloxyimino)acetamido]-3-[(2,5-dihydro-6-hydroxy-2-methyl-5-oxo-1,2,4-triazin-3-yl)thiomethyl]-3-cephem-4-carboxylic acid] | 2 (≈ 2.86 µM) | 2 (≈ 2.86 µM) | 0.25 (≈ 0.357 µM) | 1 (≈ 1.43 µM) | 128 (≈ 183 µM) | 0.25 (≈ 0.357 µM) | 0.25 (≈ 0.357 µM) | 0.06 (≈ 0.0858 µM) | 0.03 (≈ 0.0429 µM) | 16 (≈ 22.9 µM) | 0.06 (≈ 0.0858 µM) | 0.5 (≈ 0.715 µM) | 32 (≈ 45.7 µM) | 16 (≈ 22.9 µM) | 8 (≈ 11.4 µM) | 64 (≈ 91.5 µM) | 1 (≈ 1.43 µM) | 0.25 (≈ 0.357 µM) | 2 (≈ 2.86 µM) | 1 (≈ 1.43 µM) | MIC (Escherichia coli EC14; Escherichia coli EC14, agar dilution, read-out: Minimum Inhibitory Concentration): 0.25 µg/mL (≈ 0.357 µM); MIC [24]: 0.015 µg/mL (≈ 0.0214 µM); MIC ([9]; Klebsiella pneumoniae X68, agar dilution, read-out: Minimum Inhibitory Concentration): 0.25 µg/mL (≈ 0.357 µM); MIC (Proteus inconstans PR33; Proteus inconstans PR33, agar dilution, read-out: Minimum Inhibitory Concentration): 0.25 µg/mL (≈ 0.357 µM); MIC (Proteus rettgeri C24; Proteus rettgeri C24, agar dilution, read-out: Minimum Inhibitory Concentration): 0.5 µg/mL (≈ 0.715 µM); MIC (Shigella sonnei N9): 0.5 µg/mL (≈ 0.715 µM); MIC [14]: 4 µg/mL (≈ 5.72 µM); MIC [15]: 4 µg/mL (≈ 5.72 µM); MIC [16]: 0.5 µg/mL (≈ 0.715 µM); MIC [17]: 32 µg/mL (≈ 45.7 µM); MIC [18]: 0.5 µg/mL (≈ 0.715 µM); MIC [19]: 8 µg/mL (≈ 11.4 µM); MIC [20]: 0.5 µg/mL (≈ 0.715 µM); MIC [21]: > 128 µg/mL; MIC [22]: < 0.008 µg/mL; MIC [23]: < 0.008 µg/mL
